Drawing on ChEMBL document CHEMBL4765252, “Design, synthesis, and biological evaluation of novel 4H-chromen-4-one derivatives as antituberculosis agents against multidrug-resistant tuberculosis” (Eur J Med Chem, 2020), this text covers MIC for five compounds.

Converted amounts (≈) assume the structure as drawn.

Common to all, as to format: functional
The subject of test [1] is Mycobacterium tuberculosis. Briefly: Antitubercular activity against INH, SM, RFP, EMB, PAS, Prothionamide 1321, Capreomycin-resistant Mycobacterium tuberculosis 14862 assessed as inhibition of bacterial growth.
Test [2] deals with Mycobacterium tuberculosis. As to the kind of experiment: Antitubercular activity against INH, SM, RFP, EMB, RBT, PAS, OLFX-resistant Mycobacterium tuberculosis 13946 assessed as inhibition of bacterial growth.
The subject of test [3] is Mycobacterium tuberculosis. As to the kind of experiment: Antitubercular activity against isoniazid, rifampicin, fluoroquinolones-resistant Mycobacterium tuberculosis assessed as inhibition of bacterial growth incubated for 6 days by MABA assay. Conditions: 144 h, time 6 day.

Consider `O=c1cc(-c2ccc(O)cc2)oc2ccc(O)c(CN3CCCC3)c12`, for which the minimal inhibitory concentration (MIC) in test [1] is 3.82 mg/L (≈ 11.3 µM); in test [2], 3.81 mg/L (≈ 11.3 µM).
In the case of `CO[C@H]1/C=C/O[C@@]2(C)Oc3c(C)c(O)c4c(O)c(c(/C=N/N5CCN(C)CC5)c(O)c4c3C2=O)NC(=O)/C(C)=C\C=C\[C@H](C)[C@H](O)[C@@H](C)[C@@H](O)[C@@H](C)[C@H](OC(C)=O)[C@@H]1C` [RIFAMPIN], the MIC in test [1] and in test [2] was > 10 mg/L each time.
With `CCOC(=O)c1c(NC(=O)c2c(F)c(F)c(F)c(F)c2F)sc2c1CCN(CC)C2`, in test [3], the minimal inhibitory concentration (MIC) came to 0.2 µM (≈ 0.0897 µg/mL).
As for `NNC(=O)c1ccncc1` [ISONIAZID], the MIC in test [1] was > 10 mg/L; in test [2], 2.38 mg/L (≈ 17.3 µM).
On the same counts, the results for `O=c1cc(-c2ccc(O)cc2)oc2ccc(O)c(CN3CCC3)c12` are 1.64 mg/L (≈ 5.08 µM) and 1.76 mg/L (≈ 5.43 µM).

Broadly, the MIC is the least concentration at which growth counts as inhibited.
